From US6348483B1, “Use of derivatives of methylene-bis-oxazolidine and compositions obtained thereby” (Air Liquide Sante (International), priority 1998, dated 2002)

Experiments:
Assay type in all cases: cell-based
Aspergillus niger (AN) [1] = test: Fungicidal finish (SM 022) of pure acrylate house paint; conditions: for Fungicidal finish, colonization rating AN: without stress due to 72 hours leaching (so in the source)
Description: (§1) In separate batches, the test concentrations of the active compounds/products were incorporated into the house paint, and the fungicidal and/or algistatic finish was determined using the stated test methods.
(§2) Incorporation and testing were carried out according to the methods SM 022 and SM 023 below.
This laboratory method was used to determine the resistance of house coatings to fungal attack. For the method, house coatings on standardized paper were used as test substrate, and Aspergillus niger (ATCC 6275) and Penicillium funiculosum (ATCC 36839) were used as test fungi. The experiments were carried out in Petri dishes on dextrose nutrient medium.
50 g of the material to be finished were, in separate batches, mixed with various concentrations of the fungicide to be examined and homogenized for 3-5 min using a basket stirrer.
(§3) Paper carrier materials having the dimensions 90×270 mm (Schleicher & Schüll No. 2589 B/X 24078) were coated with the test material. The paint and/or render samples were coated to a wet-layer thickness of 250 μm by knife coating. […] In the case of renders, the layer thickness depended, as in practice, on the particle size. The coated carrier materials, hereinbelow referred to as test bodies, were subsequently dried in a horizontal position for five days.
The test bodies were watered in running tap water of 15±5° C. and a flow rate of 1 l/min for 72 hours and subsequently dried for two days. The cross section of the container for the watering in the direction of flow was 1000±500 cm^2.
From the pretreated test bodies, sample bodies having a diameter of 5 cm were punched out and sterilized in a Co^60 source using at least 10 kGy.
The Sabouraud dextrose agar, which had solidified in the Petri dish, was inoculated with 0.2 ml of spore suspension (10^7 spores/ml) and plated out using a sterile Drigalski spatula or an offset sterile glass rod.
The pretreated sample bodies were then evenly placed onto the inoculated surface of the nutrient medium using a pair of tweezers, making sure that the entire surface of the sample body was in contact with the surface of the nutrient medium. The sample was subsequently incubated at 30±2° C. for three weeks. For other test germs, the incubation temperature had to be adapted to achieve optimum growth.
After one, two and three weeks, the sample bodies were examined for fungal growth. Evaluation was carried out visually or—if this was required to exclude foreign infections—using a magnifying glass. If the extent of the colonization by foreign organisms observed considerably interfered with the evaluation, the experiment could not be evaluated and was repeated. The evaluation of the samples was based on the following evaluation scale:
00—entire plate free from colonization*
0—zone formation (no colonization around the sample)*
(0)—fungal colonization up to the sample*
1—only the sample edge is colonized*
2—the sample is colonized from the edge inwards (less than 25%)
3—the sample surface is colonized by individual colonies (25-75%)
4—the sample surface is colonized extensively (75% and more, but not the entire surface)
5—the sample surface is colonized completely (100%)
*Note: Samples evaluated as 00, 0, (0) and 1 can be referred to as “being effectively finished against fungal growth”.

Aspergillus niger (AN) [2] = test: as above; conditions: without stress due to leaching
Chlorella fusca (CF) = test: Algistatic finish (SM 023) of pure acrylate house paint; parameters: key to Surface colonization: −: no growth; +: some growth; ++: moderate growth; +++: strong growth
Description: as §1, §2
This laboratory method was employed for determining the resistance of house coatings to colonization by algae. For this method, house coatings on standardized paper are used as test substrate and Chlorella fusca is used as test alga. It is furthermore possible to use pure cultures of other algae species of practical relevance.
The experiments were carried out in Petri dishes on agar nutrient media.
50 g of the material to be finished were, in separate batches, mixed with various concentrations of the algicide to be examined and homogenized for 3-5 min using a basket stirrer.
as §3, with “depends,” for “depended,”
[…] The cross section of the container for the watering in the direction of flow was 1000±500 cm^2.
From the pretreated test bodies, three sample bodies having a diameter of 5 cm were punched out and sterilized in a Co^60 source using at least 10 kGy.
Aseptically, the samples were placed onto the algae nutrient media, and the centre of the sample was inoculated with 5 ml of each algae suspension.
The mixture of the algae suspensions was spread on the surface using a Drigalski spatula or an offset sterile glass rod.
During the growth phase at 22±2° C., the coated samples in the Petri dishes were irradiated with light of an intensity of about 1000 Lux (customary fluorescent tubes, type D 67 daylight). A cycle of in each case 12 hours of irradiation and 12 hours of storage in the dark was used.
The colonization of the samples by algae was examined and evaluated after two weeks. Evaluation was carried out visually. The evaluation of the samples was based on the following evaluation scale:
No growth of algae on the test bodies
Formation of an inhibitory zone or growth of algae on the nutrient medium up to the edge of the test bodies
Visible colonization of the test body by algae

[3] = without stress due to 72 hours leaching (so in the source), use concentration 0.5%
[4] = without stress due to 72 hours leaching (so in the source), use concentration 1.0%
[5] = without stress due to 72 hours leaching (so in the source), use concentration 2.0%
[6] = without stress due to leaching, use concentration 0.5%
[7] = without stress due to leaching, use concentration 1.0%
[8] = without stress due to leaching, use concentration 2.0%

In the case of `CC1CN(CN2COC(C)C2)CO1` (stereo not drawn) [Mar 71, 3,3′-methylenebis-(5-methyloxazolidine)], the “Fungicidal activity (in words), AN” value (Aspergillus niger (AN) [1]; house paint test) is reported as “no fungicidal activity in practice”, the “Fungicidal finish, colonization rating AN” value (from here on “Fungicidal finish”) (Aspergillus niger (AN) [1]; use conc. 0.5% W/W, 1. week) is reported as 5 (the sample surface is colonized completely (100%)) and the “Fungicidal finish” value (Aspergillus niger (AN) [1]; use conc. 0.5% W/W, 2. week) is reported as 5 (the sample surface is colonized completely (100%)). The “Fungicidal finish” value (Aspergillus niger (AN) [1]; use conc. 1.0% W/W, 1. week) was 5 (the sample surface is colonized completely (100%)), the “Fungicidal finish” value (Aspergillus niger (AN) [1]; use conc. 1.0% W/W, 2. week) was 5 (the sample surface is colonized completely (100%)) and the “Fungicidal finish” value (Aspergillus niger (AN) [1]; use conc. 2.0% W/W, 1. week) was 5 (the sample surface is colonized completely (100%)). The “Fungicidal finish” value (Aspergillus niger (AN) [1]; use conc. 2.0% W/W, 2. week) was 5 (the sample surface is colonized completely (100%)), the “Fungicidal finish” value (Aspergillus niger (AN) [2]; use conc. 0.5% W/W, 1. week) was 5 (the sample surface is colonized completely (100%)) and the “Fungicidal finish” value (Aspergillus niger (AN) [2]; use conc. 0.5% W/W, 2. week) was 5 (the sample surface is colonized completely (100%)). The “Fungicidal finish” value (Aspergillus niger (AN) [2]; use conc. 1.0% W/W, 1. week) was 5 (the sample surface is colonized completely (100%)), the “Fungicidal finish” value (Aspergillus niger (AN) [2]; use conc. 1.0% W/W, 2. week) was 5 (the sample surface is colonized completely (100%)) and the “Fungicidal finish” value (Aspergillus niger (AN) [2]; use conc. 2.0% W/W, 1. week) was 5 (the sample surface is colonized completely (100%)). For the same compound, the “Fungicidal finish” value (Aspergillus niger (AN) [2]; use conc. 2.0% W/W, 2. week) was 5 (the sample surface is colonized completely (100%)), the “Algicidal action (in words)” value (Chlorella fusca (CF); with stress due to leaching) was “little algicidal action in practice” and the Inhibitory zone (Chlorella fusca (CF); [3]) was 0 mm. The Surface colonization (Chlorella fusca (CF); [3]) was “++”, the Inhibitory zone (Chlorella fusca (CF); [4]) was 0 mm and the Surface colonization (Chlorella fusca (CF); [4]) was “++”. The Inhibitory zone (Chlorella fusca (CF); [5]) was 0 mm, the Surface colonization (Chlorella fusca (CF); [5]) was “+++” and the Inhibitory zone (Chlorella fusca (CF); [6]) was 12 mm. The Surface colonization (Chlorella fusca (CF); [6]) was “−”, the Inhibitory zone (Chlorella fusca (CF); [7]) was over 18 mm and the Surface colonization (Chlorella fusca (CF); [7]) was “−”. For the same compound, the Inhibitory zone (Chlorella fusca (CF); [8]) was over 18 mm, the Surface colonization (Chlorella fusca (CF); [8]) was “−” and the “Algicidal activity (in words)” value (Chlorella fusca (CF); without stress due to leaching, use concentration from 0.5 to 2% by weight) was “good algicidal activity”.
